The results in this text go back to a melting point compilation (Tetko et al.; mined from patent text by program, amines drawn as free bases though some values may be those of a salt).

In general, melting point refers to the temperature of the solid-liquid transition.

A value given as a limit tells only on which side of the number the result lay.

On to `CCCCC1=Nc2ccccc2SN1Cc1ccc(-c2ccccc2C(=O)O)cc1`, for which the melting point lay within 125 to 130 °C.

The compound `O=C(NC(=O)c1ccccc1)NC1CCCc2sccc21` (stereo not drawn) yielded a melting point of 189 to 194 °C.

In turn, `CCOC1OC(O)C(F)(F)C(F)(F)C1(F)F` (stereo not drawn) gave a melting point of 84 to 86 °C.

In turn, `O=C(O)c1ccc(Br)cc1-c1cc(Cl)cc(Cl)c1` had a melting point of 182 to 186 °C.

As to `COc1ccc2c(c1)CCn1ncnc1C2=C1CCN(C)CC1`, the melting point was 166 °C.

`COc1cccc(OC)c1C(=O)P(=S)(C(=O)c1c(OC)cccc1OC)c1ccccc1` displayed a melting point of 155 °C.

Compound `Nc1ncccc1OCc1ccc(F)cc1F` returned a melting point of 105 to 107 °C.

`COc1nc2ccc(Br)cc2cc1Cc1ccccc1` had a melting point of 83 to 85 °C.

In turn, `COc1ccc2c3c(c(Cl)nc2c1)C(=O)c1ccccc1-3` displayed a melting point of 261 to 266 °C.

Compound `Cc1c[nH]c2ccc(-c3nn(C(C)c4oc5ccccc5c(=O)c4-c4cccc(F)c4)c4ncnc(N)c34)cc12` (stereo not drawn) returned a melting point of 171 to 173 °C.

`COC(=O)c1cc(S(=O)(=O)N=CN(C)C)ccc1Cl`: the melting point fell in the range of 140 to 141 °C.

In the case of `CC(C)NC(=O)c1nc(-c2ccccc2F)c(-c2ccc(=O)n(C(C)C)n2)s1`, the melting point lay within 129 to 130 °C.

Compound `CC(C)C/C=C\CCCCCCCCCC(=O)O` returned a melting point of 12.5 °C.

In the case of `CCOC(=O)C(C)(C)CCS(N)(=O)=O`, the melting point was 93 to 94 °C.

As to `COC(=O)c1ccc(C=C2CCn3c2nc2cc(N)ccc2c3=O)cc1`, the melting point lay in the range of 292 to 295 °C.

`Cc1ccc2[nH]cc(C(=O)[C@H]3CCCN3)c2c1` showed a melting point of 194 to 196 °C.

Compound `Cc1cc(SC(C)C)c(NC(=O)CN2CCN(CCSc3nc4cccc([N+](=O)[O-])c4o3)CC2)c(SC(C)C)n1` returned a melting point of 57 to 59 °C.

The compound `O=C(O)Cc1c(C(=O)c2ccc(Cl)c(Cl)c2)[nH]c2cc(Cl)ccc12` had a melting point of 206 to 209 °C.

Turning to `CCCN1CC(c2ccc(C)cc2)=C(c2ccc(S(C)(=O)=O)cc2)C1=O`, the melting point was 156 to 158 °C.

On to `CC(C)(N)CNc1ccc(C2=NNC(=O)CC2)cc1`, for which the melting point lay within 190 to 192 °C.

Compound `CCOC(=O)c1ccc(-c2cccc(OCc3ccc(COC(=O)c4ccccc4)c(COC(=O)c4ccccc4)c3)c2)nc1` had a melting point of 118 to 120 °C.

For the compound `C[C@H](N)Cn1ncc2ccc3oc(C(N)=O)nc3c21`, the melting point was 60 to 65 °C.

The compound `N#CC1Cc2cc3c(cc21)NCC3` (stereo not drawn) had a melting point of 85 to 87 °C.

As for `CCCCOC(=O)c1cc(O)c(O)c(C#N)c1`, the melting point is 135 to 140 °C.

`COc1ccc(Cn2c(=O)n(C3OC(CO)C(O)C3O)c3nc(N)[nH]c(=O)c32)cc1` (stereo not drawn) registered a melting point of over 230 °C.

`Oc1nn(-c2ccccc2)c2ccccc12` showed a melting point of 209 to 211 °C.

Compound `CN(C)c1ccc2c(n1)C(c1ccccc1Cl)=NCc1nncn1-2` returned a melting point of 240 to 242 °C.

As to `O=C(c1nc2ccc(O)cc2[nH]1)N1CCC(Cc2ccccc2)CC1`, the melting point amounted to 186 °C.

In the case of `COC(=O)C(Oc1cc(OCc2ccsc2)ccc1C#N)c1ccccc1Cl` (racemic), the melting point lay within 102 to 104 °C.

In turn, `Nc1nc(=O)n(C(=O)c2cc(F)cc(F)c2)cc1F` displayed a melting point of 227 to 231 °C.

Compound `Cc1cccc(C(=O)c2[nH]c3ccc(Cl)cc3c2CC(=O)O)c1` displayed a melting point of 173 to 174 °C.

In turn, `CCCCOC(=O)Nc1nc2ccccc2c2c1nc(CC)n2CCCCNS(C)(=O)=O` showed a melting point of 164 to 166 °C.

In the case of `C=CCC1(Cc2ncn(C(c3ccccc3)(c3ccccc3)c3ccccc3)c2C)CCc2c(C)c3ccccc3n2C1=O` (stereo not drawn), the melting point was 83 to 85 °C.

`O=C(NC(SC(=O)c1ccccc1)C(=O)NC(Cc1c[nH]c2ccccc12)C(=O)O)c1ccccc1` (stereo not drawn) had a melting point of 188 to 191 °C.

Turning to `CCCCN1CCC(n2nc(-c3c(-c4ccccc4)nn4ccccc34)ccc2=O)CC1`, the melting point lay in the range of 106 to 108 °C.

For `Cn1cc(O)c(=O)c2ccc(OCC(F)(F)F)cc21`, the melting point was 151 °C.

Compound `COc1cc(OC)nc(NC(=O)NS(=O)(=O)c2c(C(=O)C3CC3)cnn2C)n1` came in with a melting point of 189 to 192 °C.

`CSCC(C)(C)NC(=O)c1c(I)cccc1Oc1ccc(Cl)cc1C` came in with a melting point of 128 to 130 °C.

`COC(=O)CCCOc1ccc2c(c1OC)N=C(C=C(O)c1cccnc1)N1CCN=C21`: the melting point fell in the range of 199 to 200 °C.

In the case of `Cc1cc2c(cc1Cl)CCN2C(=O)Nc1cccnc1`, the melting point was 217 to 218 °C.

Turning to `CCOCCn1cc2c(C3C(=O)Nc4ccc(Cl)cc43)nc(NCCN3CCOCC3)nc2n1` (stereo not drawn), the melting point is 293 to 294 °C.

`CCCc1c(C(=O)C(C)C)c2ccc(C(=O)OC)cc2n1Cc1ccccc1OC`: the melting point is 103 to 105 °C.

The compound `CCCCC(Oc1c(Br)cc(-c2c3ccccc3c(Br)c3sc4ccccc4c23)cc1Br)C(=O)O` (stereo not drawn) showed a melting point of 212 to 213 °C.

Compound `Oc1ccc([C@@H]2C[C@H]2c2ccccc2)cc1` (relative stereo) had a melting point of 78 to 79 °C.

For `Cc1ccc(/C=C/C(=O)O)n1Cc1ccc(Cl)cc1Cl`, the melting point lay within 181 to 182 °C.

For `CCCSc1ncc(C(=O)N[C@H](Cc2ccccc2)C(=O)O)n1Cc1ccccc1Cl`, the melting point is 176 to 177 °C.

The compound `COc1cc(C=CC(=O)c2ccc(OC)c(OC)c2OC)cc(OC)c1` had a melting point of 112 °C.

`COc1ccc(CSc2nnc(-c3ccc4ncccc4c3)o2)cc1C(F)(F)F` had a melting point of 130 to 131 °C.

In the case of `Cc1cc(NC(=O)N(C)c2ccccc2)cc(C)c1S(=O)(=O)C[N+](=O)[O-]`, the melting point fell in the range of 117 to 118 °C.

As for `CNC(=O)c1cc(-c2ccc(OC)cc2)nn(CC=C(C)C)c1=O`, the melting point came out at 104 °C.

Take `CC(C)/C=C(/C(=O)O)c1ccc(S(C)(=O)=O)cc1`: the melting point lay within 179 to 182 °C.

Turning to `O=C(O)COCCc1ccc(F)cc1`, the melting point lay within 82 to 85 °C.

Take `Cc1ccc(S(=O)(=O)Nc2cccc(Sc3ccccc3)n2)cc1`: the melting point was 128 to 130 °C.

Take `CCOC(=O)C(CC(=O)c1ccccc1C(F)(F)F)(NC(C)=O)C(=O)OCC`: the melting point is 104 to 105 °C.

Compound `Cn1cnnc1C(N)(c1ccc(C#N)cc1)c1ccc2c(c1)c(-c1cccc(Cl)c1)nc1nnnn12` (stereo not drawn) came in with a melting point of 194 °C.

In turn, `CC(C)N1C(=O)C2CC2(c2ccc(N)cc2)C1=O` (stereo not drawn) returned a melting point of 160 to 163 °C.

Turning to `CC(C)OC(=O)N1CCN(c2ccn3ncc(-c4cccn(C)c4=O)c3n2)CC1`, the melting point was in the range of 206 to 207 °C.

As for `CS(=O)(=O)c1ccc(Oc2cc(OC3CCOCC3)c3[nH]c(C4=NCC(CCO)S4)cc3c2)cc1` (stereo not drawn), the melting point lay within 116 to 117 °C.

`CCOC(=O)C(CCC#N)(C(=O)OCC)c1ncc([N+](=O)[O-])cc1C` yielded a melting point of 64 to 65.5 °C.

In the case of `COc1ccc(COc2c(OC)cc(C=C(C(=O)OC(C)C)P(=O)(OC)OC)cc2OC)cc1`, the melting point fell in the range of 68 to 69 °C.

For `O=c1[nH]c2cc(Br)cc(Br)c2c(=O)n1Cc1ccccc1Cl`, the melting point was 133 to 136 °C.

The compound `Cc1c2c(c(C#N)c(=O)n1C)-c1ccccc1C2=O` registered a melting point of 271 to 274 °C.

As for `COc1ccc(COc2ccc(CC(=O)O)cc2Cl)cc1Cl`, the melting point is 150 to 151 °C.

Regarding `CCOC(=O)c1nc(-c2cccc(Cl)c2)c(-c2ccc(=O)n(C(C)C)n2)s1`, the melting point is 134 to 136 °C.

Take `O=c1cc(C(F)(F)F)[nH]c(=O)n1Cc1cc(Cl)cc(Cl)c1Cl`: the melting point fell in the range of 199 to 202 °C.

`Nc1cccc2c1CCN(C(=O)C(F)(F)F)CC2` displayed a melting point of 85 to 88 °C.

For the compound `COC(=O)Nc1cccc(C)c1CNc1cc(C(=O)N(C)C)cc2c1nc(C)n2C`, the melting point fell in the range of 193 to 195 °C.

Consider `S=C(c1ccc(Br)cc1)N1CCOCC1`, for which the melting point was 135 to 137 °C.

As for `O=C1CCc2cc(C(=O)[C@H]3C[C@H]3C(=O)O)ccc2N1` (relative stereo), the melting point lay in the range of 190 to 194 °C.

`O=C1Nc2ccccc2C12COc1ccc3c(c12)OCCO3` (stereo not drawn) displayed a melting point of 259 to 261 °C.

Regarding `CS(=O)(=O)CC(=O)NCCn1ccc2ncnc(Nc3ccc(Oc4cccc(Cl)c4)c(Cl)c3)c21`, the melting point is 206 to 207 °C.

As for `Cc1cccc(N2CCN(CCCOc3ccc4ccc(=O)oc4c3)CC2)c1C`, the melting point was found to be 89 °C.

On to `Cc1ccc(N2C(=O)C(O)=C(C(=O)c3ccc(C(C)C)cc3)C2c2ccc(OC(F)(F)F)cc2)nn1` (stereo not drawn), for which the melting point is 221 °C.

With `CS(=O)(=O)c1ccc(-c2cnn(C3CCCC3)c(=O)c2-c2ccc(F)cc2)cc1`, the melting point fell in the range of 191 to 193 °C.

Take `COC1=CCC2=C(CC[C@@H]3[C@@H]2CC[C@@]2(C)[C@H]3CCC23CC(O)CO3)C1` (stereo partly drawn): the melting point fell in the range of 152 to 155 °C.

`CC(C)COc1ccc(C(=O)O)cc1[N+](=O)[O-]` yielded a melting point of 184 to 186 °C.

Compound `Cc1nc(-c2ccc(F)cc2)n(-c2ccc(S(N)(=O)=O)cc2)n1` had a melting point of 220 to 221 °C.

Compound `Nc1cc(C=C2OC(=O)c3ccccc32)ccc1F` had a melting point of 189 to 191 °C.

As for `CC(C)=CCCC(C)=CCCC(C)=CC=CC(C)=CC(=O)O`, the melting point stood at 78.4 °C.

On to `CNC(=O)c1sc(C(C)(C)C)cc1NC(=O)Nc1ccc(F)cc1`, for which the melting point lay in the range of 203 to 204 °C.

In turn, `C=CCN1CCN(CCC(=O)N2c3ccccc3C(=O)Nc3cccnc32)CC1` displayed a melting point of 205 to 207 °C.

For `COC(=O)C(Sc1nnnn1-c1ccccc1)N1C(=O)c2ccccc2S1(=O)=O` (stereo not drawn), the melting point is 160 to 162 °C.

Regarding `OCc1cnc2cc(F)ccc2c1O`, the melting point fell in the range of 295 to 300 °C.

`CCCCCCCCCCCCCCCCCCOc1cccc(N(CC(=O)OC)CC(=O)OC)c1` showed a melting point of 75 to 77 °C.

`CCCCCCCCCc1ccc2c(c1)C1(O)C(=O)c3ccccc3C1(O)O2` (stereo not drawn) registered a melting point of 108 to 110 °C.

For the compound `CC(C(=O)N1c2ccccc2N(C)C(=O)c2cnc(-c3ccccc3)nc21)N1CCCCC1` (stereo not drawn), the melting point lay within 214 to 215 °C.

Regarding `Nc1cc[nH]c(=O)c1Br`, the melting point was 255 to 258 °C.

Take `CCCCCCCCCCCCCCOc1ccc(COC(=O)N(Cc2ccccn2)C(C)=O)cc1`: the melting point fell in the range of 52 to 53 °C.
